The text below walks through data of article PMC3024946, “Hydroxyproline-containing collagen analogs trigger the release and activation of collagen-sequestered proMMP-2 by competition with prodomain-derived peptide P33-42” (Fibrogenesis & Tissue Repair, 2011).

The subject of one series is ActMMP-2. The series is described as follows: Solid-phase binding of [125I]-actMMP-2 to immobilized collagens/peptides (microwells). The note with it: ActMMP-2, 2 ng/well; coated wells; 4°C, 2 h; residual radioactivity; mean ± SD, at least five experiments in triplicate. Further details: species or system human. Here is the method: (§1) Human recombinant proMMPs and in vitro activated MMPs were obtained from Invitek and were labeled with the [^125I]-Bolton-Hunter reagent according to the manufacturer's instructions (PerkinElmer, Rodgau, Germany) before the buffer was exchanged for phosphate-buffered saline (PBS) with 0.05% (vol/vol) Tween 20 by gel filtration as described previously. Specific radioactivity for [^125I]-MMPs was 3-9 × 10^4 cpm/ng. Precipitation with 10% (wt/vol) trichloroacetic acid and 200 μg of BSA recovered 96% to 100% of protein-bound radioactivity. Aliquots of labeled MMPs were frozen and stored at -80°C. The activity and integrity were checked by substrate gel zymography using SDS-PAGE and autoradiography with overnight exposure to Biomax MS film (Kodak, Stuttgart, Germany) (Figure 2A).
(§2) Native human CI, CIII and CVI were purified from skin tissue and placenta. The CI single chains α1(I) and α2(I) were obtained and modified as described previously. To prepare defined fragments, 2 mg of α1(I) were dissolved in 1 ml of 70% (vol/vol) formic acid at room temperature, the tubes were flushed with nitrogen for 10 min, and then 2 mg of CB were added. After incubation for 4 h at 37°C, free CB was neutralized and the samples were lyophilized. The peptides CB3, CB6, CB7 and CB8 were separated from the reaction mixture by gel filtration followed by ion-exchange chromatography. The resulting peptides were characterized by amino acid analysis and SDS-PAGE [45, 46]. The CB peptides had the following melting temperatures: CB3, 23.9°C; CB6, 26.7°C; CB7, 28.1°C; and CB8, 28.0°C [31].
(§3) The following collagen analogs and control peptides were synthesized as described previously: (GPO)10, H-Gly-Cys-Hyp-(Gly-Pro-Hyp)10-Gly-Cys-Hyp-Gly-NH2; (GPP)10, H-Gly-Cys-Pro-(Gly-Pro-Pro)10-Gly-Cys-Pro-Gly-NH2; and GAP, H-Gly-Ala-Cys-(Gly-Ala-Pro)5-Gly-Phe-Hyp-Gly-Glu-Arg-(Gly-Ala-Pro)5-NH2. Peptides (POG)10, (PPG)10 and (POG)5 were purchased from Peptide International (Louisville, KY, USA). Spontaneous triple-helix assembly was approved by polarimetry over a 10-cm path length at 1°C/min in 10 mM phosphate buffer, pH 7.4. At 5 mg/ml, midpoints of melting curves occurred at 82.3 ± 1.4°C for (GPO)10 and at 45.8 ± 0.8°C for (GPP)10. […] Graphs were calculated from the primary data using a custom fitting program written by D.A. Slatter (Department of Biochemistry, University of Cambridge, Cambridge, UK [48]) to model different possible transitions. All collagens, CI derivatives and peptides were stored in stock solutions of 2 mg/ml in 150 mM acetic acid at -20°C.
(§4) ProMMP-2 and proMMP-9 or actMMP-2 and actMMP-9 were bound to nitrocellulose and polystyrene-immobilized native collagens, CI chains, CB peptides or structural analogs. Serial dilutions of collagens or CI derivatives in 150 mM acetic acid were dotted at 3 × 3 μl to a nitrocellulose membrane with high protein-binding capacity (GE Healthcare, Munich, Germany). Air-dried membranes were blocked with PBS and 0.3% (vol/vol) Tween 20 overnight at 4°C, washed three times, and incubated with 1 ng/ml [^125I]-pro- and actMMP-2 and pro- and actMMP-9 in PBS and 0.3% (vol/vol) Tween 20 for 2 h at room temperature. Membranes were washed again and air-dried, and bound MMP was monitored by autoradiography. In parallel, polystyrene microtiter plates (Dynex, Chantilly, VA, USA) were coated with collagen proteins and peptides. Here 2 μg/well or 200 ng/well proteins and peptides or BSA as control were immobilized in 100 μl of 50 mM ammonium bicarbonate buffer, pH 9.6, by overnight incubation at 4°C. Immobilization efficacies were 20% to 45% of total proteins. Wells were washed three times with PBS, and nonspecific binding sites were blocked with PBS and 0.05% (vol/vol) Tween 20 for 1 h at room temperature. All incubation steps were performed with 2 ng of [^125I]-MMPs at 4°C for 2 h. […]

Another series relates to ActMMP-9. Briefly: Solid-phase binding of [125I]-actMMP-9 to immobilized collagens/peptides (microwells). The arrangement: species or system human. The note with it: ActMMP-9, 2 ng/well; coated wells; 4°C, 2 h; residual radioactivity; mean ± SD, at least five experiments in triplicate. As for the experimental part:
as §1, §2, §3, §4

A further series has as its system ProMMP-2. Briefly: Solid-phase binding of [125I]-proMMP-2 to immobilized collagens/peptides (microwells). As to conditions: for Binding of [125I]-MMPs: ProMMP-2, 2 ng/well, coated wells, 4°C, 2 h, residual radioactivity, mean ± SD, at least five experiments in triplicate. The arrangement: species or system human. As for the experimental part:
as §1, §2, §3, §4

The test system of the next series is ProMMP-9. Briefly: Solid-phase binding of [125I]-proMMP-9 to immobilized collagens/peptides (microwells). The note with it: for Binding of [125I]-MMPs: ProMMP-9, 2 ng/well, coated wells, 4°C, 2 h, residual radioactivity, mean ± SD, at least five experiments in triplicate. The arrangement: species or system human. Here is the method:
as §1, §2, §3, §4

The nature of series [1]: Triple-helix melting temperature. The series is classed as physicochemical. As to conditions: polarimetry; 5 mg/ml; 10 mM phosphate buffer, pH 7.4, 1°C/min. Here is the method:
as §2, §3

For the substance “H-Gly-Cys-Pro-(Gly-Pro-Pro)10-Gly-Cys-Pro-Gly-NH2 [(GPP)10, Triple-helical Gly-Pro-Pro (GPP)10, devoid of Hyp]”, the “Binding of [125I]-MMPs” value with ActMMP-2 is on record as 2.1 ± 0.7 % of maximum control; in the series on ActMMP-9 it was 0.9 ± 0.4 % of maximum control; in the series on ProMMP-2, 3.6 ± 2.0 % of maximum control; in the series on ProMMP-9, 4.9 ± 0.7 % of maximum control. Also, in the series with ProMMP-2 (pro- and act-forms of MMP-2 and MMP-9, in words), the “interaction with control peptides” value was “only marginal interactions”. For the same substance, the “midpoint of melting curve” value in series [1] was found to be 45.8 ± 0.8 °C.
“H-Gly-Cys-Hyp-(Gly-Pro-Hyp)10-Gly-Cys-Hyp-Gly-NH2 [(GPO)10, triple-helical Hyp-containing collagen analog]”: the “Binding of [125I]-MMPs” value is given as 6.2 ± 3.1 % of maximum control with ActMMP-2, 5.4 ± 0.6 % of maximum control in the series on ActMMP-9, 13.0 ± 3.5 % of maximum control in the series on ProMMP-2 and 36.1 ± 1.7 % of maximum control in the series with ProMMP-9. The “binding of proMMP vs respective actMMP” value is given as “two- to sevenfold more strongly” with ProMMP-2 (proMMP-2 vs actMMP-2 (stated jointly for MMP-2 and MMP-9)); “two- to sevenfold more strongly” with ProMMP-9 (proMMP-9 vs actMMP-9 (stated jointly for MMP-2 and MMP-9)). Also, the “midpoint of melting curve” value in series [1] stood at 82.3 ± 1.4 °C.
